According to US20090270413A1, “DI-T-BUTYLPHENYL PIPERAZINES AS CALCIUM CHANNEL BLOCKERS” (priority 2008, published 2009):

Experiments:
[1] = test system: T-type over L-type channels; conditions: cited from earlier work
Human Cav2.2 channels = biological target: T1, Human Cav2.2 channels (Homo sapiens, UniProt Q00975); test: Block of Cav2.2 (N-type) channels expressed in HEK293 cells; format: cell-based; conditions: for inhibition at 10 µM / inhibition at 30 µM: HEK293; for inhibition at 10 µM: read-out: Cav 2.2 % Inh @ 10 μM; for inhibition at 30 µM: read-out: Cav 2.2 % Inh @ 30 μM; for IC50: read-out: Cav 2.2 IC50
T1 construct: expressed in transfected cells
Outline: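 HEK293 cells co-expressing Cav2.2 with α2δ, β subunits and Kir2.3. Fluo-4 calcium influx: 30 min compound incubation at 25 °C in 4 mM (resting) or 12, 25 or 30 mM K+ (open/inactivated), then 70 mM K+ depolarisation. IonWorks HT barium-current patch clamp: 5 min compound, 2 Hz train of twenty 25 ms steps to +20 mV, first versus 20th pulse block.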

[2] = biological target: T2, Cav3.1 (T-type channel alpha-1G) (Homo sapiens, UniProt O43497); test: T-type calcium channel voltage-clamp assay, Cav3.1; format: cell-based; conditions: read-out: Cav 3.1 IC50
T2 construct: expressed in transfected cells; host or cells: HEK 293
T2 sequence (O43497 whole entry): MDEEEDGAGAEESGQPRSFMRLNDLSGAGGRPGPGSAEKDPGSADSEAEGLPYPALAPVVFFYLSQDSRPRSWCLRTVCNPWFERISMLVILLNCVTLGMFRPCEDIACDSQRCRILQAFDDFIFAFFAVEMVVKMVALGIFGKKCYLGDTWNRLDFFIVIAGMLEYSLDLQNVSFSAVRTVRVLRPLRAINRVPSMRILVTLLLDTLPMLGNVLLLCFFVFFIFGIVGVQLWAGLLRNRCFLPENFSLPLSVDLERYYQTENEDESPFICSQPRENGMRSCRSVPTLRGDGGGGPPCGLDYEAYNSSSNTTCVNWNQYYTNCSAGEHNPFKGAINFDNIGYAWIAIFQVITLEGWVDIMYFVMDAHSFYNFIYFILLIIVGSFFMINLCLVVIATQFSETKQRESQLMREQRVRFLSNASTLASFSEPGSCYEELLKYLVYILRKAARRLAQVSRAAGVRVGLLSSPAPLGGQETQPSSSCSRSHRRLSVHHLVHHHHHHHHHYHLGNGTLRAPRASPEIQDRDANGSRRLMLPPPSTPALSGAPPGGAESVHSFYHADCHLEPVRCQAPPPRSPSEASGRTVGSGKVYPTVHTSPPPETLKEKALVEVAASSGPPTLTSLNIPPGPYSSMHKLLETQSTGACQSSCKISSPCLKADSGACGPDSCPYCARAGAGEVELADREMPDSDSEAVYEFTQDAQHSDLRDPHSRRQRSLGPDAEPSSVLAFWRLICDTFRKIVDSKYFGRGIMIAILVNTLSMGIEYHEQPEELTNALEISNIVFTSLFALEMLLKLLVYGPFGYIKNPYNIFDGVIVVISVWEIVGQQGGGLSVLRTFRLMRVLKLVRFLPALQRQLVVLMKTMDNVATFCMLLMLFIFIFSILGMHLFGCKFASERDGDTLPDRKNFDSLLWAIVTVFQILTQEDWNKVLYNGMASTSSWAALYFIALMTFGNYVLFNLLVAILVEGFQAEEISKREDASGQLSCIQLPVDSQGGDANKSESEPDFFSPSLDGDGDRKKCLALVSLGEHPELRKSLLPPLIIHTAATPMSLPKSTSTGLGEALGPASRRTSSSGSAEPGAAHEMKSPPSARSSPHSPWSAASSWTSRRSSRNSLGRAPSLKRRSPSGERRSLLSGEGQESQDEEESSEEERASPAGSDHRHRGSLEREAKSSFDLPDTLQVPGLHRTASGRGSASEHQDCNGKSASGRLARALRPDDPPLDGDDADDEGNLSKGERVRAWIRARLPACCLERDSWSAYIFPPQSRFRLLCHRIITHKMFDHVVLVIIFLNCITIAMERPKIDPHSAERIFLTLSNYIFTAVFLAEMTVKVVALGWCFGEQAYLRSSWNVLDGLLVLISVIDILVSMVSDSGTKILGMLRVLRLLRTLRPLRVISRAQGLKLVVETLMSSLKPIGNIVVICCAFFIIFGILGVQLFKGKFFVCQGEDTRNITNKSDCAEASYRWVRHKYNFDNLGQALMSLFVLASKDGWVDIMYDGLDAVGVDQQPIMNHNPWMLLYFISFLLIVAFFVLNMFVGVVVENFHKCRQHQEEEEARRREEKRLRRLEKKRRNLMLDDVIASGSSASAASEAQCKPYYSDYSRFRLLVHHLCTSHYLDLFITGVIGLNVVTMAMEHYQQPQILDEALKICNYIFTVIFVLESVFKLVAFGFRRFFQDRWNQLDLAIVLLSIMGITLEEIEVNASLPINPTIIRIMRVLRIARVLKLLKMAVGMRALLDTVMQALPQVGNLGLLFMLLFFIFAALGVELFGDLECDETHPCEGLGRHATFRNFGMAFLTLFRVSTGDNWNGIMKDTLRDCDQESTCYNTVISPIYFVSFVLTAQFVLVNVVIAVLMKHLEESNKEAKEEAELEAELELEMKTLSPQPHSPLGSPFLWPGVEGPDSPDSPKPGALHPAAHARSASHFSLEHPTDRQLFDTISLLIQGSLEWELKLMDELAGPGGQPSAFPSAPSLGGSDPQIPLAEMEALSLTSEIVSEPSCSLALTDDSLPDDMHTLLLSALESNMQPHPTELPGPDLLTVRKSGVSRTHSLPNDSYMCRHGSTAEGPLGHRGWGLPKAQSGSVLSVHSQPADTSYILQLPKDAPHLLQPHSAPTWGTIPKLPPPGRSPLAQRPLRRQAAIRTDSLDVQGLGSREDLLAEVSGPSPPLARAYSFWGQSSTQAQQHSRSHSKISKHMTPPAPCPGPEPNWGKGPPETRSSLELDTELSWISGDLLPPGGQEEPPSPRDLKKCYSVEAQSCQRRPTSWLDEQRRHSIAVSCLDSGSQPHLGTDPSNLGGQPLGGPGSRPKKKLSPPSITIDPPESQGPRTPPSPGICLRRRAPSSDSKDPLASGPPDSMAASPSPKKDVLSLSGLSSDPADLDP
Procedure: (§1) The T-type calcium channel blocking activity of the compounds of this invention may be readily determined using the methodology well known in the art described by Xia, et al., Assay and Drug Development Tech., 1 (5), 637-645 (2003).
(§2) In a typical experiment ion channel function from HEK 293 cells expressing the T-type channel alpha-1G, H, or I (CaV 3.1, 3.2, 3.3) is recorded to determine the activity of compounds in blocking the calcium current mediated by the T-type channel alpha-1G, H, or I (CaV 3.1, 3.2, 3.3). In this T-type calcium (Ca^2+) antagonist voltage-clamp assay calcium currents are elicited from the resting state of the human alpha-1G, H, or I (CaV 3.1, 3.2, 3.3) calcium channel as follows. Sequence information for T-type (Low-voltage activated) calcium channels are fully disclosed in e.g., U.S. Pat. No. 5,618,720, U.S. Pat. No. 5,686,241, U.S. Pat. No. 5,710,250,U.S. Pat. No. 5,726,035, U.S. Pat. No. 5,792,846, U.S. Pat. No. 5,846,757, U.S. Pat. No. 5,851,824, U.S. Pat. No. 5,874,236, U.S. Pat. No. 5,876,958, U.S. Pat. No. 6,013,474, U.S. Pat. No. 6,057,114, U.S. Pat. No. 6,096,514, WO 99/28342, and J. Neuroscience, 19 (6):1912-1921 (1999). Cells expressing the t-type channels were grown in H3D5 growth media which is comprised DMEM, 6% bovine calf serum (HYCLONE), 30 micromolar Verapamil, 200 microgram/ml Hygromycin B, 1× Penicillin/Streptomycin. Glass pipettes are pulled to a tip diameter of 1-2 micrometer on a pipette puller. The pipettes are filled with the intracellular solution and a chloridized silver wire is inserted along its length, which is then connected to the headstage of the voltage-clamp amplifier. Trypsinization buffer was 0.05% Trypsin, 0.53 mM EDTA. The extracellular recording solution consists of (mM): 130 mM NaCl, 4 mM KCl, 1 mM MgCl2, 2 mM CaCl2, 10 mM HEPES, 30 Glucose, pH 7.4. The internal solution consists of (mM): 135 mM CsMeSO4, 1 MgCl2, 10 CsCl, 5 EGTA, 10 HEPES, pH 7.4, or 135 mM CsCl, 2 MgCl2, 3 MgATP, 2 Na2ATP, 1 Na2GTP, 5 EGTA, 10 HEPES, pH 7.4. Upon insertion of the pipette tip into the bath, the series resistance is noted (acceptable range is between 1-4 megaohm). The junction potential between the pipette and bath solutions is zeroed on the amplifier. The cell is then patched, the patch broken, and, after compensation for series resistance (>=80%), the voltage protocol is applied while recording the whole cell Ca2+ current response. Voltage protocols: (1) −80 mV holding potential every 20 seconds pulse to −20 mV for 40 msec duration; the effectiveness of the drug in inhibiting the current mediated by the channel is measured directly from measuring the reduction in peak current amplitude initiated by the voltage shift from −80 mV to −20 mV; (2). −100 mV holding potential every 15 seconds pulse to −20 mV for 40 msec duration; the effectiveness of the drug in inhibiting the current mediated by the channel is measured directly from measuring the reduction in peak current amplitude initiated by the shift in potential from −100 mV to […]. The difference in block at the two holding potentials was used to determine the effect of drug at differing levels of inactivation induced by the level of resting state potential of the cells. After obtaining control baseline calcium currents, extracellular solutions containing increasing concentrations of a test compound are washed on. Once steady state inhibition at a given compound concentration is reached, a higher concentration of compound is applied. % inhibition of the peak inward control Ca2+ current during the depolarizing step to −20 mV is plotted as a function of compound concentration.

[3] = biological target: T3, Cav3.2 (T-type channel alpha-1H) (Homo sapiens, UniProt O95180); test: T-type calcium channel voltage-clamp assay, Cav3.2; format: cell-based; conditions: read-out: Cav 3.2 IC50
T3 construct: expressed in transfected cells; host or cells: HEK 293
T3 sequence (O95180 whole entry): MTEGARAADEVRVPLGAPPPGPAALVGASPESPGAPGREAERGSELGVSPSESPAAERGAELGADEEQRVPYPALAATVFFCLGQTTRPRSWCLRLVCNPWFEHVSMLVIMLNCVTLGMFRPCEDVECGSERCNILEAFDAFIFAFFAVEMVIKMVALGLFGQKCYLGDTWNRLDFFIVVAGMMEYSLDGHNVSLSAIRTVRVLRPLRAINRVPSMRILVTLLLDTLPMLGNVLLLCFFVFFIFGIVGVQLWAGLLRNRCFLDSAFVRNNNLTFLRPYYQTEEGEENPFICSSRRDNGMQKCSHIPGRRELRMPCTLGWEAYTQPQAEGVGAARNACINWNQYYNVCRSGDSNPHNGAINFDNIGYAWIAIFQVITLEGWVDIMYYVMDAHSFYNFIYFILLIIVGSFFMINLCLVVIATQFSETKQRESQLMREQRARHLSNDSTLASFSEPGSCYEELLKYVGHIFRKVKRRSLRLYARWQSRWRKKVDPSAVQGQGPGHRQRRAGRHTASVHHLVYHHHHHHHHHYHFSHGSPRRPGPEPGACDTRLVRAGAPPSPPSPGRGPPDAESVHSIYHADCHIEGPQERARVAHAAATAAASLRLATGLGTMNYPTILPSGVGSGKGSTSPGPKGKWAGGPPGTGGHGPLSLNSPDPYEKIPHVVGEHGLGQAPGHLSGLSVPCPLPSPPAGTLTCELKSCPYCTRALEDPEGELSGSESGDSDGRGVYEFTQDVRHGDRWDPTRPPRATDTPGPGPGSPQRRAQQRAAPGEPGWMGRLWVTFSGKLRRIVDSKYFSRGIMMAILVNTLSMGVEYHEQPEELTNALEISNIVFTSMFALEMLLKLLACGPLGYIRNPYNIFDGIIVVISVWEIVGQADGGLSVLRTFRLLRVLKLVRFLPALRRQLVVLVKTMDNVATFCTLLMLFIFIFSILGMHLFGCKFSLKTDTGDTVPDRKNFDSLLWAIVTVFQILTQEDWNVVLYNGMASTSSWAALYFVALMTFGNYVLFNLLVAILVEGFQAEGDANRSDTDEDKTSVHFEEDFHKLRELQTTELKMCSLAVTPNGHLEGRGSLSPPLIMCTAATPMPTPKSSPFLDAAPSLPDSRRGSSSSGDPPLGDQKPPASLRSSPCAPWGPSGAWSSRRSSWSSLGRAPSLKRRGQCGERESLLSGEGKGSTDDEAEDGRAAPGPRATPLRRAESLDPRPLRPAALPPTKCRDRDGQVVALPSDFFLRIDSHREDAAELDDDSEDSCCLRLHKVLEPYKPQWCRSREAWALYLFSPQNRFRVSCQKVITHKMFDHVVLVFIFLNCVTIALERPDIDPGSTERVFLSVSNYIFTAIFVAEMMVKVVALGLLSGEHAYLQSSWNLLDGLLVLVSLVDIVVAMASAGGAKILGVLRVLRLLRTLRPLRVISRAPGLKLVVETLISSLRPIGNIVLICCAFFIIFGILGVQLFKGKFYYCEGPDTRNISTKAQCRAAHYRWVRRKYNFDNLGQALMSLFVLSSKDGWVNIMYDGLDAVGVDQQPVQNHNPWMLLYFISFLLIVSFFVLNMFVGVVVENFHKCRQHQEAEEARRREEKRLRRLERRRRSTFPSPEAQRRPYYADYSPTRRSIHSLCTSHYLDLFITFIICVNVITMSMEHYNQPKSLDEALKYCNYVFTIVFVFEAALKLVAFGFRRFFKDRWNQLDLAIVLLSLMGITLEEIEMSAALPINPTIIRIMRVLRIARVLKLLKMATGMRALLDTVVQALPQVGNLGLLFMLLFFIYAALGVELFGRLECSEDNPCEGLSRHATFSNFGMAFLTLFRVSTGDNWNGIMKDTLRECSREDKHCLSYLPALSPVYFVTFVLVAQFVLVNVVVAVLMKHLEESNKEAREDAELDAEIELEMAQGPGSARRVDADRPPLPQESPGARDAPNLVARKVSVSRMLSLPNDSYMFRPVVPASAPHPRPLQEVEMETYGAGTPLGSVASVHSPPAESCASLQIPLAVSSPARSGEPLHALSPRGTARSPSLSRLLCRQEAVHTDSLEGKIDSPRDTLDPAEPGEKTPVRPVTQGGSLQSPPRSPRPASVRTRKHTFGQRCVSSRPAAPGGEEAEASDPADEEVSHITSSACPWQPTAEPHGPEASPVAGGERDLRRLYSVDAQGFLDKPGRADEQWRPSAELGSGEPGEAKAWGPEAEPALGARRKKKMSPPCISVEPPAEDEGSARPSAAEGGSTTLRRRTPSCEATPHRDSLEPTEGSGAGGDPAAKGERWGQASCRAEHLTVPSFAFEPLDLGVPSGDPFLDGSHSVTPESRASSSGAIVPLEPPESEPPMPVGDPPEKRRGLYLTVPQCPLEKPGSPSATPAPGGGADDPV
Procedure: as §1, §2

For `COCC(=O)O[C@]1(CCN(C)CCCc2nc3ccccc3[nH]2)CCc2cc(F)ccc2[C@@H]1C(C)C` [Mibefradil], the “selective for T-type over L-type channels” value [1] is given as 10-30 fold.
Compound `CCCSc1ncccc1C(=O)N1CCN(c2cc(C(C)(C)C)cc(C(C)(C)C)c2)CC1` [Compound 31, (4-(3,5-di-tert-butylphenyl)piperazin-1-yl)(2-(propylthio)pyridin-3-yl)methanone] has an inhibition at 10 µM (Human Cav2.2 channels) of 99%, an inhibition at 30 µM (Human Cav2.2 channels) of 104% and an IC50 (Human Cav2.2 channels) of 0.85 µM. For the same compound, the IC50 [2] was 1.25 µM and the IC50 [3] was 1.59 µM.
For `CC(C)(C)c1cc(N2CCN(C(=O)c3ccccc3)CC2)cc(C(C)(C)C)c1` [Compound 48, (4-(3,5-di-tert-butylphenyl)piperazin-1-yl)(phenyl)methanone], the inhibition at 10 µM (Human Cav2.2 channels) was 103%, the inhibition at 30 µM (Human Cav2.2 channels) was 103% and the IC50 (Human Cav2.2 channels) was 1.48 µM. It also gave an IC50 [2] of 0.37 µM and an IC50 [3] of 0.61 µM.
`Cc1nc(C)c(C(=O)N2CCN(c3cc(C(C)(C)C)cc(C(C)(C)C)c3)CC2)s1` [Compound 32, (4-(3,5-di-tert-butylphenyl)piperazin-1-yl)(2,4-dimethylthiazol-5-yl)methanone] showed an inhibition at 10 µM (Human Cav2.2 channels) of 98%, an inhibition at 30 µM (Human Cav2.2 channels) of 98% and an IC50 (Human Cav2.2 channels) of 0.78 µM. The IC50 [2] was 1.09 µM and the IC50 [3] was 1.15 µM.
